Measurements: patent US11406605B2, “Therapeutic compositions for treating pancreatic cancer” (Golden Biotechnology Corporation, priority 2017, dated 2022)
Where “and” joins values, the source holds several entries; their conditions need not be identical. Equal entries are not always repeated.

Legend:
[1] = Body weight and hematological parameters in AsPC-1 xenograft study; assay type: in vivo
Method: A. Clinical Observations: Clinical observations of each study animal were performed and at least once daily (including weekends and holidays) for signs of morbidity, mortality and Test Article toxicity. Morbidity includes signs of illness such as, but not limited to, emaciation, dehydration, lethargy, hunched posture, unkempt appearance, dyspnea and urine or fecal staining. All abnormal findings will be recorded.
B. Animal Weights: Individual animal weights were taken one (1) time per week after/before dosing. Weights were recorded first prior to cell injections and continued for the duration of the study.
D. Hematological parameters: Cardiac blood was collected in EDTA for analyzing hematological parameters such as white blood cell count (WBC), red blood cell count (RBC), hemoglobin concentration (HB), hematocrit, mean corpuscular hemoglobin and concentration, platelet distribution width, platelet count, neutrophils, lymphocytes, monocytes, eosinophils. This was determined using hematology counter (Abbott Cell-Dyn 3700, IL).

[2] = system: metastatic pancreatic cancer; assay: Phase I study of Compound 1 with nab-paclitaxel and gemcitabine, preliminary results; assay type: in vivo, human; settings: 600 mg daily dosage of Compound 1 in combination with nab-paclitaxel and gemcitabine; after 3rd cycle (8 weeks treatment); individual patients
Text: This is a single-arm, open-label, multi-center Phase I study of Compound 1 in combination with nab-paclitaxel and gemcitabine in first line treatment naïve subjects with Stage IV metastatic pancreatic carcinoma.
The first part of the study will follow a 3+3 dose escalation design to determine the MTD or MFD (based on PK and capsules strength) of antroquinonol in combination with standard dose regimen of nab-paclitaxel and gemcitabine. Two dose levels of antroquinonol given TID are planned based on dose escalation data and capsules strengths. The final number of subjects will be based on the number of dose levels investigated and DLTs occurrence. Up to 12 subjects may be treated in this part of the study. A Safety Monitoring Committee (SMC) will be set up for this study to review DLTs and overall safety data and judge the relevance of events to the dose escalation scheme. […]
Treatments Administered: Compound 1 will be administered in 200- to 300-mg doses (planned dose levels), TID, given in 100 mg capsules (resulting a daily dosage of 600 mg to 900 mg). Additional dose levels may be investigated as determined by the study SMC. […]
Efficacy Assessments: The RECIST 1.1 criteria will be used to assess subject response to treatment by determining ORR, DoR, DCR, PFS, PFS 3 months, and PFS 6 months. […] The OS, OS 6 months, and OS 12 months will also be evaluated.

[3] = 50, 100, 200, 300, 450, and 600 mg-dose levels, given daily for 4 weeks; cited from earlier work
[4] = system: orthotopic PANC-1 human pancreatic cancer xenograft; settings: 30, 60, and 90 mg/kg, cited from earlier work
[5] = system: AsPC-1 subcutaneous xenograft; assay: Antitumor activity on AsPC-1 subcutaneous xenograft model; assay type: in vivo, nude mice
Method: The human pancreatic carcinoma cell line, AsPC-1, was cultured and the cells were injected subcutaneously in a flank of 60 mice. Three days later, the tumors could be felt in the mice. When tumors reached approximately 100-200 mg (mm^3), total of fifty one (51) tumor-bearing mice were randomly selected and sorted into one of six (6) groups. Vehicle (corn oil) treated mice were used as negative controls. Compound 1 combined with gemcitabine or paclitaxel were administered orally once a day and/or I.V. twice a week for four (4) weeks. Tumor measurements were recorded once a week using hand-held calipers and Visualsonic Vevo 2100 image system. Individual mouse weights were taken once a week during dosing. Mice were monitored daily for signs of toxicity and morbidity; any abnormal findings were recorded. The study was terminated four (4) weeks after initiation of drug administration.
D. Human Pancreatic Carcinoma Xenograft Models: • 1. To create the subcutaneous xenograft model, athymic female nude mice (4-6 weeks old) were subcutaneously inoculated with 1×10^7 AsPC-1 cells in 0.1 mL of serum-free DMEM medium containing 20% Matrigel (BD Biosciences, Bedford Mass.). • 2. Tumor-bearing animals were divided into the following 6 groups as table 1. • 3. The mice were monitored for activity and physical condition every day, and the determination of body weight and measurement tumor mass should be done once a week. Tumor image will be photed by digital camera and Visualsonic Vevo 2100 image system. Tumor mass is determined by caliper measurement in two perpendicular diameters of the implant and calculate using the formula […], where “a” stands for the long diameter and “b” is the short diameter.
a. Cell Injections: Mice were injected subcutaneously into the right lateral thorax with 1×10^7 viable human pancreatic carcinoma AsPC-1 Cells. […]
C. Tumor Measurements: The injection site of each animal was monitored one (1) time per week for signs of tumor growth. Throughout the study, the length (a) and width (b) of any tumors developed were measured in millimeters (mm) using vernier calipers, where a is the longer of the two (2) dimensions.
D. Evaluation of drug synergistic effect by tumor growth inhibition (TGI) and tumor inhibitory ratio (TIR): Volume of tumor growth inhibition (TGI) for each group was calculated according to the following formula: Tumor growth inhibition (%)=(1−[T−T0]/[C−C0])×100 • T and T0 are the mean tumor volumes on the end day and day 1 of treatment, respectively, for the experimental groups. […] The tumor inhibitory ratio was calculated by the formula: Tumor inhibitory ratio (%)=[(WControl−WTreated)/WControl]×100% • WTreated and WControl are the average tumor weights of the treated and control mice, respectively. […]

[6] = system: AsPC-1 pancreatic cancer cells; assay: Cytotoxicity of test articles (TC50), MTT assay; assay type: cell-based, Human; settings: concentration at which cell viability was reduced to 50%
Method: The human pancreatic carcinoma cell lines, AsPC-1, PANC-1 and CaPan-2 were seeded 3×10^4 cells per well and cultured in a forty-eight (48) well cell culture dish (growth area 0.95 cm^2 per well). Sixteen (16) hours later, cells were treated Compound 1 alone or Compound 1 with a clinical chemotherapy drug, respectively. After 48 or 72 hours of the treatment, methylthiazoletetrazolium (MTT) assay (supplemental protocol-1) was performed to measure the effect of treatment on the viability of cells during proliferation.
B. Cell Preparation • 1. Remove and discard culture medium. • 2. Briefly rinse the cell layer with 5 mL HBSS. Gently shake and remove the HBSS. • 3. Add 5 mL trypsin-EDTA to 15 cm^2 polystyrene dishes. Incubate 5 mins at 37° C. in a humidified incubator with 95% air/5% CO2 atmosphere. • 4. Add 5 mL of complete growth medium (DMEM medium containing 10% FBS) and aspirate cells by gently pipetting. • 5. Count live cells using the trypan blue exclusion assay (supplemental protocol-2) with a hemocytometer. • 6. For in vitro study, cells will be seeded 3×10^4 cells per well and cultured in a forty-eight (48) wells cell culture dish for sixteen (16) hours until treatment. • 7. Incubate cultures at 37° C.
a. Cytotoxicity of test articles (TC50): AsPC-1 was seeded 3×10^4 cells (counted by Cell counter, LUNA™ Automated Cell Counter or hemocytometer) per well and cultured in a 48 wells cell culture dish. Cells were treated with single article from 400 or 800 μM with serial dilution to 0 μM. After 48 or 72 hours of treated, MTT assay was performed to measure the effect of treatment on the viability of AsPC-1 cells during proliferation. The absorbance at 595 nm was measured using a microplate reader (BioTEK, Synergy™ H1). Article sensitivity curves and TC50 values were calculated using GraphPad Prism 4.0 software.

[7] = system: metastatic pancreatic adenocarcinoma; settings: previously untreated metastatic pancreatic adenocarcinoma; cited from earlier work
[8] = system: advanced pancreatic cancer; settings: patients with advanced pancreatic cancer; cited from earlier work
[9] = system: advanced pancreatic cancer; settings: people with advanced pancreatic cancer; cited from earlier work
[10] = cardiac blood, AsPC-1 xenograft study, mean ± SEM, n = 3
[11] = AsPC-1 xenograft, 28 days treatment
[12] = Homo sapiens, ASPC1, AsPC-1 cells, 48 hrs
[13] = Homo sapiens, ASPC1, AsPC-1 cells, 72 hrs

Compound: COC1=C(OC)C(O)C(C/C=C(\C)CC/C=C(\C)CCC=C(C)C)C(C)C1=O (centres unmarked) [Compound 1, 4-hydroxy-2,3-dimethoxy-6-methyl-5-(3,7,11-trimethyldodeca-2,6,10-trienyl)cyclohex-2-enone]
- number of blood cells ([1]; AsPC-1 xenograft): did not affect number of blood cells except for blood glucose
- HCT [1, 10]: 50.3 ± 1.8%
- HGB [1, 10]: 15.6 ± 1.1 g/dL
- MCH [1, 10]: 15.3 ± 0.3 pg
- MCV [1, 10]: 53.6 ± 2.3 fL
- RBC [1, 10]: 9.93 ± 1.34 10^12/L
- WBC [1, 10]: 7.34 ± 0.71 10^9/L
- patient tumor size after treatment [2]: 84 mm and 39 mm
- patient tumor size reduced [2]: 7.6% and 22%
- safety and tolerability [3]: generally safe and well tolerated
- tolerability, body weight loss ([4]; tumor bearing mice): tolerated well
- anti-tumor activity (mean tumor volumes and tumor weights vs vehicle control) ([4]; measured 10 days after drug treatment): effective anti-tumor activity
- Response, TCR (tumor volume of treatment-to-control ratios) [5, 11]: 0.55
- TGI (volume of tumor growth inhibition) [5, 11]: 51%
- TIR (tumor weight inhibitory ratio) [5, 11]: 45%
- Tumor weight of excised tumors at the time of sacrifice ([5]; after 28 days of treatments, A 120 mg/kg oral daily, G/P IV twice weekly, mean ± SEM): 0.21 ± 0.07 g
- CC50 [6, 12]: 58.1 µM
- CC50 [6, 13]: 24 µM

Compound: O=c1[nH]cc(F)c(=O)[nH]1 [Compound 5-FU, 5-Fluorouracil]
- CC50 [6, 12]: > 800 µM
- CC50 [6, 13]: > 800 µM

Compound: C#Cc1cccc(Nc2ncnc3cc(OCCOC)c(OCCOC)cc23)c1 [Erlotinib]
- CC50 [6, 12]: > 800 µM
- CC50 [6, 13]: > 800 µM

Compound: Nc1ccn([C@@H]2O[C@H](CO)[C@@H](O)C2(F)F)c(=O)n1 [Gemcitabine]
- Median PFS [7]: 3.7 months
- median OS [7]: 6.7 months
- Median progression-free survival (PFS) [8]: 3.3 months
- median overall survival (OS) [8]: 6.8 months
- improvement in median survival duration [9]: 5 week
- CC50 [6, 12]: > 800 µM
- CC50 [6, 13]: > 800 µM

Compound: CCc1c2c(nc3ccc(OC(=O)N4CCC(N5CCCCC5)CC4)cc13)-c1cc3c(c(=O)n1C2)COC(=O)[C@]3(O)CC [Irinotecan]
- CC50 [6, 12]: 221 µM
- CC50 [6, 13]: 68.3 µM

Compound: O=C1[O][Pt]2([NH][C@@H]3CCCC[C@H]3[NH]2)[O]C1=O [Oxaliplatin]
- CC50 ([6]; AsPC-1 cells, 48 hrs): 655 µM
- CC50 ([6]; AsPC-1 cells, 72 hrs): 57.9 µM

Compound: CC(=O)O[C@H]1C(=O)[C@@]2(C)[C@H]([C@H](OC(=O)c3ccccc3)[C@]3(O)C[C@H](OC(=O)[C@H](O)[C@@H](NC(=O)c4ccccc4)c4ccccc4)C(C)=C1C3(C)C)[C@]1(OC(C)=O)CO[C@@H]1C[C@@H]2O [Paclitaxel]
- CC50 [6, 12]: 7.05 µM
- CC50 [6, 13]: 3.72 µM
